Results published in patent US20220089541A1, “Compounds for the Treatment of Kinase-Dependent Disorders” (Exelixis, Inc., priority 2019, published 2022).

What was measured:
KDR = biological target: T1, KDR (Homo sapiens, UniProt P35968); assay: KDR autophosphorylation ELISA in HUVEC cells; assay type: cell-based; settings: VEGF165-stimulated, phospho-KDR ELISA, 1 h compound incubation
T1 construct: host or cells: HUVEC (human umbilical vein endothelial cells)
Method: Example C: KDR Autophosphorylation ELISA in HUVEC Cells
umbilical vein endothelial cells or HUVEC (Lonza #C2519A) were seeded at 2×10^4 cells/well onto 96-well plates (Corning #3904), in EGM-2 growth medium (Lonza #CC-3162) containing 1% Penicillin Streptomycin (Thermo Fisher #15140-122). HUVEC cells were incubated at 37° C., 5% CO2 for 24 h and then starved for 24 h in serum-free EBM-2 basal medium (Lonza #CC-3156) containing 1% Penicillin Streptomycin. Test compounds were serially diluted to produce an 8-point dose curve in fresh serum-free medium to a final concentration of 0.3% DMSO (vehicle) and added to the cells and incubated for 1 h. Cells were then stimulated with 100 ng/mL recombinant human VEGF165 (R&D Systems #293-VE-500) for 5 min, washed with cold PBS, and immediately lysed with 130 μL of cold IX lysis buffer [20 mM Tris, 137 mM sodium chloride, 2 mM EDTA, 10% glycerol, 1% NP-40 alternative, 1 mM activated sodium orthovanadate, 1 mM PefaBloc SC (Sigma-Aldrich #11429868001), protease/phosphatase inhibitor tablet (Thermo Fisher #A32959)]. Lysates were collected and 100 μL/well added into the human phospho-KDR DuoSet IC ELISA (R&D Systems #DYC 1766-2). Assay was performed according to manufacturer's instructions and sample phospho-KDR concentrations were extrapolated using human phospho-KDR control (R&D Systems #841421) as a standard. Positive control wells (100% activity) contained VEGF165-stimulated, DMSO-treated cell lysates. Negative control wells (0% activity) contained non-stimulated cell lysates. IC50 values were calculated by nonlinear regression analysis using a 4-parameter logistic curve fit in ActivityBase XE (IDBS).

[1] = Microsomal assay, mouse liver microsome stability; settings: liver microsomes, pH 7.4
Method: (§1) Liver microsomes tissue fractions were used for in vitro assessment of metabolic stability of compounds by cytochrome P450 (CYP450) (for example, CYP3A4, CYP2C9) mediated phase I oxidation, and metabolism through other pathways. Human, mouse, rat, and dog liver microsomes tissue fractions were obtained from Corning Gentest and BioreclamationIVT.
(§2) The assay was carried out in 96-well microtiter plates. Compounds were incubated (N=l) at 37° C. in the presence of liver microsomes. Reaction mixtures (25 μL) contained a final concentration of 1 μM test compound, 0.5 mg/mL liver microsomes (LM) protein, and 1 mM NADPH in 100 mM potassium phosphate, pH 7.4 buffer with 3.3 mM MgCl2. The extent of metabolism was calculated as the disappearance of the test compound, compared to the 0-min control reaction incubations. Verapamil was included as a positive control to verily assay performance.
(§3) At each of the four time points, 150 μL of quench solution (100% acetonitrile with 0.1% formic acid) with internal standard (bucetin for positive ESI mode) was transferred to each well. Plates were sealed and centrifuged at 10° C. for 15 minutes at 4000 rpm. The supernatant was transferred to fresh plates for LC/MS/MS analysis.
(§4) All samples were analyzed on LC/MS/MS using an AB Sciex API 4000 instrument, coupled to a Shimadzu LC-20AD LC Pump system. Analytical samples were separated using a Waters Atlantis T3 dC18 reverse phase HPLC column (20 mm×2.1 mm) at a flow rate of 0.5 mL/min. The mobile phase consisted of 0.1% formic acid in water (solvent A) and 0.1% formic acid in 100% acetonitrile (solvent B).

Met = biological target: T2, Met (Homo sapiens, UniProt P08581); assay: Met autophosphorylation ELISA in PC-3 cells; assay type: cell-based; settings: PC-3 prostate cancer cells, HGF-stimulated, phospho-Met ELISA, 1 h compound incubation; read-out: c-Met IC50
T2 construct: host or cells: PC-3 prostate cancer cells
T2 sequence (P08581 25-1390): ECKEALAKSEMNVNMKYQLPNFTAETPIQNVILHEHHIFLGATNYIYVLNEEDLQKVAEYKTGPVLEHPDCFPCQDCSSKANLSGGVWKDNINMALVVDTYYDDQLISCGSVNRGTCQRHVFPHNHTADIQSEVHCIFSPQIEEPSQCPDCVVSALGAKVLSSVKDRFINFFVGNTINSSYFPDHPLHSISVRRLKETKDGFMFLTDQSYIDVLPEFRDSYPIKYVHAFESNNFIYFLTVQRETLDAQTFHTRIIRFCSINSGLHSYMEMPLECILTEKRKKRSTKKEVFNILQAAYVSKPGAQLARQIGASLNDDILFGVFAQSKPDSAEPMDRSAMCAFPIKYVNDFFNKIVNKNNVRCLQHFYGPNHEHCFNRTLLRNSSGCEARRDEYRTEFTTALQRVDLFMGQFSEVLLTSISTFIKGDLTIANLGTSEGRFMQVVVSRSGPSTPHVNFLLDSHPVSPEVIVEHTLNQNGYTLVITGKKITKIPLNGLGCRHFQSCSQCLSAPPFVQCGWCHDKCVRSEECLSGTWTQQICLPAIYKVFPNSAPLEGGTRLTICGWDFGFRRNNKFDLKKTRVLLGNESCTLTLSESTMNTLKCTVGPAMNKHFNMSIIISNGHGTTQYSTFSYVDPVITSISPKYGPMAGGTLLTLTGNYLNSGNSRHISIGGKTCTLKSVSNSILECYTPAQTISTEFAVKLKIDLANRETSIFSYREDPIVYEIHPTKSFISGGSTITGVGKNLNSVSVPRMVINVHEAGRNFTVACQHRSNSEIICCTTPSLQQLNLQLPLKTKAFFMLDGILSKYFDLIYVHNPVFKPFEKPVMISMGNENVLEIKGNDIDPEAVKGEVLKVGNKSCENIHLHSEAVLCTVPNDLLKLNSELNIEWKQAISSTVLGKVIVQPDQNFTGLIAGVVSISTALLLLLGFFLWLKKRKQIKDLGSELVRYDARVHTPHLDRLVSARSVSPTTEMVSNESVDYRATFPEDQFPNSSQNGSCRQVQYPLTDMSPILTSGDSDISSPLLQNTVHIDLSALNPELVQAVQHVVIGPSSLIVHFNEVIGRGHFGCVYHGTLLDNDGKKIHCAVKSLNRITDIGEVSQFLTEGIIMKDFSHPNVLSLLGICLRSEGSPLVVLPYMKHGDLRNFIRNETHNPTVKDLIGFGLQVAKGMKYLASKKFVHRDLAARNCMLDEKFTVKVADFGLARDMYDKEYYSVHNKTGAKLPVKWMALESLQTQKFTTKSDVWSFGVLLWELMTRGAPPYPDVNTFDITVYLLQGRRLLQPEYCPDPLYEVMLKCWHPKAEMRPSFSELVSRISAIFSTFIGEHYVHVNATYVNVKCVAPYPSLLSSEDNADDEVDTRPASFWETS
Method: Example B: Met Autophosphorylation ELISA in PC-3 Cells
PC-3 prostate cancer cells (ATCC #CRL-1435) were seeded at 4×10^4 cells/well onto 24-well plates (Greiner #662165), in DMEM (Thermo Fisher #11995-040) containing 10% FBS (Thermo Fisher #26140-079), 1% MEM NEAA (Thermo Fisher #11140-050), 1% GlutaMax (Thermo Fisher #35050-061), and 1% Penicillin Streptomycin (Thermo Fisher #15140-122). PC-3 cells were incubated at 37° C., 5% CO2 for 24 h and then starved for 3 h in serum-free medium. Test compounds were serially diluted to produce an 8-point dose curve in fresh serum-free medium to a final concentration of 0.3% DMSO (vehicle) and added to the cells and incubated for 1 h. Cells were then stimulated with 100 ng/mL recombinant human HGF (R&D Systems #294-HG-250) for 10 min, washed with cold PBS, and immediately lysed with 130 μL of cold IX lysis buffer [20 mM Tris, 137 mM sodium chloride, 2 mM EDTA, 10% glycerol, 1% NP-40 alternative, 1 mM activated sodium orthovanadate, 1 mM PefaBloc SC (Sigma-Aldrich #11429868001), protease/phosphatase inhibitor tablet (Thermo Fisher #A32959)]. Lysates were clarified by centrifugation and 100 μL/well added into the PathScan phospho-Met (panTyr) Sandwich ELISA (Cell Signaling Technology #7333). Assay was performed according to manufacturer's instructions. Positive control wells (100% activity) contained HGF-stimulated, DMSO-treated cell lysates. Negative control wells (0% activity) contained HGF-stimulated, reference inhibitor-treated cell lysates. IC50 values were calculated by nonlinear regression analysis using a 4-parameter logistic curve fit in ActivityBase XE (IDBS).

[2] = Microsomal assay, human liver microsome stability; settings: liver microsomes, pH 7.4
Method: as §1, §2, §3, §4

[3] = Microsomal assay, rat liver microsome stability; settings: liver microsomes, pH 7.4
Method: as §1, §2, §3, §4

[4] = microsomes, pH 7.4
Method: as §1, §2, §3, §4

[5] = microsomes, pH 7.4; remark: listed apart in the source
Method: as §1, §2, §3, §4

[6] = microsomes, pH 7.4; remark: listed apart in the source
Method: as §1, §2, §3, §4

AXL = biological target: T3, AXL (Homo sapiens, UniProt P30530); assay: AXL autophosphorylation ELISA in A-172 cells; assay type: cell-based; settings: A-172 glioblastoma cells, Gas6-stimulated, phospho-AXL ELISA, 1 h compound incubation
T3 construct: host or cells: A-172 glioblastoma cells
T3 sequence (P30530 26-894): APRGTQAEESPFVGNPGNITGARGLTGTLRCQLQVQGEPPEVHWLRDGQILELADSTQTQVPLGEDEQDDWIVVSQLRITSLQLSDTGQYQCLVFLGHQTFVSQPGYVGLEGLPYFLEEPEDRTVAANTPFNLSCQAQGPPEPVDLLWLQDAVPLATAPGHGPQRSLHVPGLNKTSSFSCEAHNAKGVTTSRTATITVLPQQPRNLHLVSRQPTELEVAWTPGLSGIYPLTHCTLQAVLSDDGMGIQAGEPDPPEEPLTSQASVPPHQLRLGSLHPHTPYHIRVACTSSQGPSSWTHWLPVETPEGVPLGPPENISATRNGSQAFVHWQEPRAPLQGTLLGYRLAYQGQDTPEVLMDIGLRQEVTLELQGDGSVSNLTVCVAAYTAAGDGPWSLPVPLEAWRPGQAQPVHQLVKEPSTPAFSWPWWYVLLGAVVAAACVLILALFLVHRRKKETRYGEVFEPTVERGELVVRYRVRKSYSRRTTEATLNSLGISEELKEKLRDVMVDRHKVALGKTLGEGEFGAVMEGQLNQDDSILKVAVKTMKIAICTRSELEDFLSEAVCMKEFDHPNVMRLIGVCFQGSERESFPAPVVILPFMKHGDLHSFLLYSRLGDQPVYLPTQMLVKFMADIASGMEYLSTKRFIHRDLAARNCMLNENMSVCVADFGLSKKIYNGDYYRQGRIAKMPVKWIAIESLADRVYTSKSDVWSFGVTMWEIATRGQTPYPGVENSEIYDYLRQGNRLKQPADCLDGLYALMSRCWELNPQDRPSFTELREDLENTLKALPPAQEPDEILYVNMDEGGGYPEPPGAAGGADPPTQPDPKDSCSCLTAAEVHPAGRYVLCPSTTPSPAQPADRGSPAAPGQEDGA
Method: Example A: AXL Autophosphorylation ELISA in A-172 Cells
A-172 glioblastoma cells (ATCC #CRL-1620) were seeded at 2.5×10^5 cells/well onto 24-well plates (Greiner #662165), in DMEM (Thermo Fisher #11995-040) containing 10% FBS (Thermo Fisher #26140-079), 1% MEM NEAA (Thermo Fisher #11140-050), 1% GlutaMax (Thermo Fisher #35050-061), and 1% Penicillin Streptomycin (Thermo Fisher #15140-122). A-172 cells were incubated at 37° C., 5% CO2 for 24 h and then starved for 24 h in serum-free medium. Test compounds were serially diluted to produce an 8-point dose curve in fresh serum-free medium to a final concentration of 0.3% DMSO (vehicle) and added to the cells and incubated for 1 h. Cells were then stimulated with 1 μg/mL recombinant human Gas6 (R&D Systems #885-GSB-500) for 15 min, washed with cold PBS, and immediately lysed with 150 μL of cold IX lysis buffer [20 mM Tris, 137 mM sodium chloride, 2 mM EDTA, 10% glycerol, 1% NP-40 alternative, 1 mM activated sodium orthovanadate, 1 mM PefaBloc SC (Sigma-Aldrich #11429868001), protease/phosphatase inhibitor tablet (Thermo Fisher #A32959)]. Lysates were collected and 100 μL/well added into the human phospho-AXL DuoSet IC ELISA (R&D Systems #DYC2228-2). Assay was performed according to manufacturer's instructions and sample phospho-AXL concentrations were extrapolated using human phospho-AXL control (R&D Systems #841645) as a standard. Positive control wells (100% activity) contained Gas6-stimulated, DMSO-treated cell lysates. Negative control wells (0% activity) contained Gas6-stimulated, reference inhibitor-treated cell lysates. IC50 values were calculated by nonlinear regression analysis using a 4-parameter logistic curve fit in ActivityBase XE (IDBS).

T1 sequence (P35968 20-1356): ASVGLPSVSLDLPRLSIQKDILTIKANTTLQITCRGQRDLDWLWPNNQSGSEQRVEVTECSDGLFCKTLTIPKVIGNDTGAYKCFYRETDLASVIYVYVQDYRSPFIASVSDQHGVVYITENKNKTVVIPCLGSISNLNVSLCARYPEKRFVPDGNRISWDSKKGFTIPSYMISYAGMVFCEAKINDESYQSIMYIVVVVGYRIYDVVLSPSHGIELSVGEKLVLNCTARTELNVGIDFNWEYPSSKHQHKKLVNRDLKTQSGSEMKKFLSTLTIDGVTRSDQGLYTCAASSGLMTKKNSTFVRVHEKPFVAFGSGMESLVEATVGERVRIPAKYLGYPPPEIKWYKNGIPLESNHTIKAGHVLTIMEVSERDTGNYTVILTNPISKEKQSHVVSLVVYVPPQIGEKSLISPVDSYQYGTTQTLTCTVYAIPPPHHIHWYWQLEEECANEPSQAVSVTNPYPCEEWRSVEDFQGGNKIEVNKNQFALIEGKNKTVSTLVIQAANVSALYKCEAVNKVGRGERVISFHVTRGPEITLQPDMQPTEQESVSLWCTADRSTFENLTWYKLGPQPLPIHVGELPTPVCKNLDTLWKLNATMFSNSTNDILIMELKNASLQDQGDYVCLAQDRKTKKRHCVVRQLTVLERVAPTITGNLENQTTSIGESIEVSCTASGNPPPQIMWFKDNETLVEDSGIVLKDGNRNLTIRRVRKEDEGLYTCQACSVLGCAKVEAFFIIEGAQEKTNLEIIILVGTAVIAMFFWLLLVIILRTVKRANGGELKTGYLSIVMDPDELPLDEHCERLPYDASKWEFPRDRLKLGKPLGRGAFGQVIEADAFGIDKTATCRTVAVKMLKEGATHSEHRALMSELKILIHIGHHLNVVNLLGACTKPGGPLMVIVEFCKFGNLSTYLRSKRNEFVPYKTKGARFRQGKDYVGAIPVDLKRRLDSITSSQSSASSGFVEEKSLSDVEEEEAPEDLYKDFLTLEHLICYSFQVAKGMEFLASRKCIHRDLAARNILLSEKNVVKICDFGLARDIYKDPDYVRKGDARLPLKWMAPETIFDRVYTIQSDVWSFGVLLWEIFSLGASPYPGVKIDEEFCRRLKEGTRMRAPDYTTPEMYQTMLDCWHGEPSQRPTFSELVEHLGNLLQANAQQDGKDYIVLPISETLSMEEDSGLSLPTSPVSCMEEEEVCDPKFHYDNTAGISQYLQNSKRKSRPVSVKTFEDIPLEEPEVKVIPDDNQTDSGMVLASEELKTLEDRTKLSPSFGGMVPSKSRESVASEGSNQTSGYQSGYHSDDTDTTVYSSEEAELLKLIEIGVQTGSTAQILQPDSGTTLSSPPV

IC50 (KDR) [nM]	half-life at 1 μM [1] [min]	IC50 (Met) [nM]	half-life at 1 μM [2] [min]	half-life at 1 μM [3] [min]	Mouse Liver Microsome Stability CLint (μL/min/million cells) [4]	Mouse Liver Microsome Stability t½ [4] [min]	Human Liver Microsome Stability CLint (μL/min/million cells) [5]	Human Liver Microsome Stability t½ [5] [min]	Rat Liver Microsome Stability CLint (μL/min/million cells) [6]	Rat Liver Microsome Stability t½ [6] [min]	IC50 (AXL) [nM]	Molecule
> 300	7.3	> 300	1.6	1.6								COc1cc2c(Oc3ccc(NC(=O)C4(C(=O)N(C)c5ccc(F)cc5)CC4)cc3F)ccnc2cc1OCCCN1CCOCC1 [Compound 11, N-(3-Fluoro-4-((6-methoxy-7-(3-morpholinopropoxy)quinolin-4-yl)oxy)phenyl)-N-(4-fluorophenyl)-N-methylcyclopropane-1,1-dicarboxamide]
					928	1.49	1052	1.3	1028	1.35		1-N-[4-(6,7-Dimethoxyquinolin-4-yl)oxyphenyl]-1-N′-(4-fluorophenyl)-1-N′-(methoxymethyl)cyclopropane-1,1-dicarboxamide [Compound 49]
> 300		> 300									> 300	COc1cc2nccc(Oc3ccc(NC(=O)C4(C(=O)N(C)c5ccc(F)cc5)CC4)cc3F)c2nc1OC [Compound 44, 1-N-[4-[(6,7-Dimethoxy-1,5-naphthyridin-4-yl)oxy]-3-fluorophenyl]-1-N′-(4-fluorophenyl)-1-N′-methylcyclopropane-1,1-dicarboxamide]
